Measurements as given in the NIST ThermoML archive (doi:10.1016/j.tca.2013.03.008).
Numbers after ± are expanded uncertainties.

Assay: xn = mol fraction of the nth substance listed
Settings: 101 kPa, Liquid; for viscosity: Capillary tube (Ostwald / Ubbelohde) method; for mass density: Vibrating tube method

CCOC(=O)CCl [ethyl chloroethanoate] + CCC(=O)CC
Settings | mass density, 298.15 K [kg/m3] | mass density, 308.15 K [kg/m3] | mass density, 318.15 K [kg/m3] | viscosity, 298.15 K [mPa·s] | viscosity, 308.15 K [mPa·s] | viscosity, 318.15 K [mPa·s]
x2 = 0 | 1144.11 ± 0.45 | 1131.46 ± 0.44 | 1118.74 ± 0.42 | 1.095 ± 0.011 | 0.939 ± 0.009 | 0.815 ± 0.008
x2 = 0.0502 | 1127.54 ± 0.43 | 1115 ± 0.42 | 1102.39 ± 0.41 | 1.05 ± 0.01 | 0.902 ± 0.009 | 0.783 ± 0.008
x2 = 0.0877 | 1115.18 ± 0.42 | 1102.73 ± 0.41 | 1090.21 ± 0.39 | 1.017 ± 0.01 | 0.874 ± 0.009 | 0.76 ± 0.01
x2 = 0.1207 | 1104.29 ± 0.41 | 1091.91 ± 0.4 | 1079.49 ± 0.38 | 0.987 ± 0.01 | 0.85 ± 0.009 | 0.741 ± 0.008
x2 = 0.1692 | 1088.28 ± 0.39 | 1076.05 ± 0.38 | 1063.74 ± 0.37 | 0.944 ± 0.009 | 0.815 ± 0.008 | 0.713 ± 0.007
x2 = 0.2551 | 1059.87 ± 0.37 | 1047.89 ± 0.36 | 1035.82 ± 0.35 | 0.87 ± 0.009 | 0.756 ± 0.008 | 0.666 ± 0.007
x2 = 0.3266 | 1036.16 ± 0.35 | 1024.36 ± 0.34 | 1012.49 ± 0.33 | 0.813 ± 0.008 | 0.71 ± 0.007 | 0.63 ± 0.006
x2 = 0.413 | 1007.44 ± 0.34 | 995.88 ± 0.33 | 984.26 ± 0.33 | 0.75 ± 0.008 | 0.659 ± 0.007 | 0.587 ± 0.006
x2 = 0.4998 | 978.47 ± 0.34 | 967.18 ± 0.34 | 955.81 ± 0.34 | 0.695 ± 0.007 | 0.612 ± 0.006 | 0.548 ± 0.006
x2 = 0.574 | 953.63 ± 0.33 | 942.56 ± 0.33 | 931.39 ± 0.33 | 0.653 ± 0.007 | 0.575 ± 0.006 | 0.517 ± 0.005
x2 = 0.6638 | 923.44 ± 0.32 | 912.62 ± 0.32 | 901.71 ± 0.32 | 0.604 ± 0.006 | 0.533 ± 0.006 | 0.48 ± 0.005
x2 = 0.7475 | 895.2 ± 0.31 | 884.6 ± 0.31 | 873.95 ± 0.31 | 0.562 ± 0.006 | 0.498 ± 0.005 | 0.449 ± 0.005
x2 = 0.827 | 868.26 ± 0.31 | 857.9 ± 0.31 | 847.48 ± 0.31 | 0.522 ± 0.005 | 0.466 ± 0.005 | 0.421 ± 0.005
x2 = 0.9114 | 839.54 ± 0.31 | 829.45 ± 0.31 | 819.27 ± 0.31 | 0.481 ± 0.005 | 0.434 ± 0.005 | 0.391 ± 0.004
